Patent publication US8247211B2, “Glycopeptide antibiotics” (American Cyanamid Company, priority 2001, dated 2012)
≈ marks a conversion by molar mass, not a printed value.

Legend:
Test in all cases: In vitro antibacterial evaluation: minimum inhibitory concentration (MIC), broth dilution method
Type in all cases: cell-based
Staphylococcus sp. = system: Staphylococcus sp.
Method in brief: (§1)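 An MIC is reported for each organism as the least concentration giving inhibition, using broth dilution over 64-0.06 μg/mL with a 5×10^5 CFU/mL inoculum.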

Enterococcus sp. = conditions: 18 hours at 35° C.
Method in brief: as §1

Streptococcus sp. = conditions: 18 hours at 35° C.
Method in brief: as §1

Escherichia coli = conditions: 18 hours at 35° C.
Method in brief: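 Susceptibility determined by NCCLS-recommended broth dilution (M7-A2), Muller-Hinton II […]. Concentration span 64-0.06 μg/mL, inoculum 5×10^5 CFU/mL. Isolates include strains resistant to methicillin, penicillin and/or vancomycin.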

[1] = broth dilution, inoculum 5×10^5 CFU/mL

MIC Staphylococcus aureus (ATCC 29213) (Staphylococcus sp.; strain ATCC 29213): 32 µg/mL (≈ 19.8 µM)
MIC Staphylococcus aureus (GC 1131) (Staphylococcus sp.; strain GC 1131): 16 µg/mL (≈ 9.9 µM)
MIC Staphylococcus aureus (GC 3051) (Staphylococcus sp.; strain GC 3051): 64 µg/mL (≈ 39.6 µM)
MIC Staphylococcus aureus (GC 3053) (Staphylococcus sp.; strain GC 3053): 64 µg/mL (≈ 39.6 µM)
MIC Staphylococcus aureus (GC 4541) (Staphylococcus sp.; strain GC 4541): 16 µg/mL (≈ 9.9 µM)
MIC Staphylococcus aureus (GC 4542) (Staphylococcus sp.; strain GC 4542): 64 µg/mL (≈ 39.6 µM)
MIC Staphylococcus aureus-SMITH (GC 4543) (Staphylococcus sp.; strain GC 4543): 16 µg/mL (≈ 9.9 µM)
MIC Staphylococcus aureus (GC 4544) (Staphylococcus sp.; strain GC 4544): 32 µg/mL (≈ 19.8 µM)
MIC Staphylococcus aureus (GC 4545) (Staphylococcus sp.; strain GC 4545): 32 µg/mL (≈ 19.8 µM)
MIC Coagulase Negative Staphylococcus (GC 4547) (Staphylococcus sp.; strain GC 4547): 32 µg/mL (≈ 19.8 µM)
MIC Coagulase Negative Staphylococcus (GC 4548) (Staphylococcus sp.; strain GC 4548): 8 µg/mL (≈ 4.95 µM)
MIC Coagulase Negative Staphylococcus (GC 4549) (Staphylococcus sp.; strain GC 4549): 8 µg/mL (≈ 4.95 µM)
MIC Coagulase Negative Staphylococcus (GC 4551) (Staphylococcus sp.; strain GC 4551): 16 µg/mL (≈ 9.9 µM)
MIC Coagulase Negative Staphylococcus (GC 6257) (Staphylococcus sp.; strain GC 6257): 4 µg/mL (≈ 2.48 µM)
MIC Enterococcus avium (GC 4558) (Enterococcus sp.; Enterococcus avium (GC 4558)): 16 µg/mL (≈ 9.9 µM)
MIC Enterococcus faecalis (ATCC 29212) (Enterococcus sp.; Enterococcus faecalis (ATCC 29212)): >64 µg/mL
MIC Enterococcus faecalis (GC 2242) (Enterococcus sp.; Enterococcus faecalis (GC 2242)): >64 µg/mL
MIC Enterococcus faecalis (GC 2691) (Enterococcus sp.; Enterococcus faecalis (GC 2691)): >64 µg/mL
MIC Enterococcus faecalis (GC 3059) (Enterococcus sp.; Enterococcus faecalis (GC 3059)): >64 µg/mL
MIC Enterococcus faecalis (GC 4552) (Enterococcus sp.; Enterococcus faecalis (GC 4552)): >64 µg/mL
MIC Enterococcus faecalis (GC 4553) (Enterococcus sp.; Enterococcus faecalis (GC 4553)): 64 µg/mL (≈ 39.6 µM)
MIC Enterococcus faecalis (GC 4554) (Enterococcus sp.; Enterococcus faecalis (GC 4554)): >64 µg/mL
MIC Enterococcus faecalis (GC 6189) (Enterococcus sp.; Enterococcus faecalis (GC 6189)): 64 µg/mL (≈ 39.6 µM)
MIC Enterococcus faecium (GC 2243) (Enterococcus sp.; Enterococcus faecium (GC 2243)): 64 µg/mL (≈ 39.6 µM)
MIC Enterococcus faecium (GC 4556) (Enterococcus sp.; Enterococcus faecium (GC 4556)): >64 µg/mL
MIC Enterococcus faecium (GC 4557) (Enterococcus sp.; Enterococcus faecium (GC 4557)): 8 µg/mL (≈ 4.95 µM)
MIC Enterococcus avium (GC 4558) (Enterococcus sp.; [1]): 16 µg/mL (≈ 9.9 µM)
MIC Enterococcus faecalis (ATCC 29212) (Enterococcus sp.; [1]): >64 µg/mL
MIC Enterococcus faecalis (GC 2242) (Enterococcus sp.; [1]): >64 µg/mL
MIC Enterococcus faecalis (GC 2691) (Enterococcus sp.; [1]): >64 µg/mL
MIC Enterococcus faecalis (GC 3059) (Enterococcus sp.; [1]): >64 µg/mL
MIC Enterococcus faecalis (GC 4552) (Enterococcus sp.; [1]): >64 µg/mL
MIC Enterococcus faecalis (GC 4553) (Enterococcus sp.; [1]): 64 µg/mL (≈ 39.6 µM)
MIC Enterococcus faecalis (GC 4554) (Enterococcus sp.; [1]): >64 µg/mL
MIC Enterococcus faecalis (GC 6189) (Enterococcus sp.; [1]): 64 µg/mL (≈ 39.6 µM)
MIC Enterococcus faecium (GC 2243) (Enterococcus sp.; [1]): 64 µg/mL (≈ 39.6 µM)
MIC Enterococcus faecium (GC 4556) (Enterococcus sp.; [1]): >64 µg/mL
MIC Enterococcus faecium (GC 4557) (Enterococcus sp.; [1]): 8 µg/mL (≈ 4.95 µM)
MIC Streptococcus agalactiae (GC 4564) (Streptococcus sp.; Streptococcus agalactiae (GC 4564)): 16 µg/mL (≈ 9.9 µM)
MIC Streptococcus pneumoniae (ATCC 6301) (Streptococcus sp.; Streptococcus pneumoniae (ATCC 6301)): 4 µg/mL (≈ 2.48 µM)
MIC Streptococcus pneumoniae (GC 1894) (Streptococcus sp.; Streptococcus pneumoniae (GC 1894)): 8 µg/mL (≈ 4.95 µM)
MIC Streptococcus pneumoniae (GC 4565) (Streptococcus sp.; Streptococcus pneumoniae (GC 4565)): 8 µg/mL (≈ 4.95 µM)
MIC Streptococcus pyogenes (GC 4563) (Streptococcus sp.; Streptococcus pyogenes (GC 4563)): 16 µg/mL (≈ 9.9 µM)
MIC Streptococcus agalactiae (GC 4564) (Streptococcus sp.; [1]): 16 µg/mL (≈ 9.9 µM)
MIC Streptococcus pneumoniae (ATCC 6301) (Streptococcus sp.; [1]): 4 µg/mL (≈ 2.48 µM)
MIC Streptococcus pneumoniae (GC 1894) (Streptococcus sp.; [1]): 8 µg/mL (≈ 4.95 µM)
MIC Streptococcus pneumoniae (GC 4565) (Streptococcus sp.; [1]): 8 µg/mL (≈ 4.95 µM)
MIC Streptococcus pyogenes (GC 4563) (Streptococcus sp.; [1]): 16 µg/mL (≈ 9.9 µM)
MIC Escherichia coli (ATCC 25922) (Escherichia coli; Escherichia coli (ATCC 25922)): 32 µg/mL (≈ 19.8 µM)
MIC Escherichia coli (GC 4559) (Escherichia coli; Escherichia coli (GC 4559)): 64 µg/mL (≈ 39.6 µM)
MIC Escherichia coli (GC 4560) (Escherichia coli; Escherichia coli (GC 4560)): 16 µg/mL (≈ 9.9 µM)
SMILES: Cc1ccc(Oc2cccc(C3OCC4OC(OC5C(CO)OC(Oc6ccc(CC7NC(=O)C(C(C)c8ccccc8)NC(=O)CNC(=O)C(CO)NC(=O)C(C(O)C8CNC(=N)N8C8OC(CO)C(O)C(O)C8O)NC(=O)C(C(O)C8CNC(=N)N8)NC7=O)cc6I)C(O)C5O)C(O)C(O)C4O3)c2)cc1 (stereo not shown) [Example 197]
MIC Staphylococcus haemolyticus (GC 4546) (Staphylococcus sp.; strain GC 4546): 32 µg/mL (≈ 19.8 µM)
